According to patent US7803766B2, “Gastrin compositions and formulations, and methods of use and preparation” (Warath Pharmaceuticals, Inc, priority 2002, dated 2010):
Where a SMILES comes first, the peptide text is derived from it. [ ]: non-standard residue; d: D form. pGlu = O=C1CC[C@@H](C(=O)O)N1

Key:
[1] = cynomolgus monkey, in vivo
Description: Male animals were used in the example. Each animal received gastrin by intravenous administration (3 μg/kg, 10 μg/kg and 30 μg/kg). The dosing solutions for intravenous injection were administered as a single bolus dose via the saphenous vein at a dose volume of 1 mL/kg. A 0.2 mL saline flush was administered following dosing in order to ensure administration of the complete dose volume. The actual volume administered to each animal was based on the animal's most recent body weight.
Serial blood samples (approximately 0.5 ml per time point) were collected via the brachial or femoral vein at the following time points: 0 (pre-dose), 1, 3, 5, 10, 15, 30 minutes, 1, 2, and 4 hours post dose.
Each sample was collected into a tube containing EDTA and kept on wet ice pending centrifugation. The samples were centrifuged under refrigeration for a minimum of 10 minutes at 1,500 g (RCF) and the resultant plasma was transferred into duplicate tubes and placed on dry ice. All samples were stored frozen for PK analysis as described below.
Gastrin in plasma samples was measured with a well established competitive radioimmunoassay for the quantitative determination of gastrin (Russell et al., Postgraduate Medical Journal 52:645, 1976). […] The antigen was labeled with ^125I and the presence of the antigen:antibody reactions were detected using a gamma counter. […]

[2] = test system: NOD mice with recent onset diabetes; assay: Modified and unmodified gastrin in combination with GLP-1 in preventing diabetes progression in NOD mice with recent onset diabetes; assay type: in vivo; conditions: 3 μg/kg/day gastrin equivalent with GLP-1 100 μg/kg/day i.p. daily for 14 days, compared to GLP-1 with native gastrin (Compound B)
Excerpt: In this example, the effect of treatment by a combination of GLP-1 and unmodified gastrin and GLP-1 and modified gastrin compounds/conjugates were examined in NOD mice with recent onset diabetes, to determine whether administration of both GLP-1 and gastrin would prevent severe hyperglycemia as well as increase pancreatic insulin content in NOD mice with recent-onset diabetes. The GLP-1 used was GLP-1 which is the biologically active fragment of human/mouse GLP-1 (having residues at positions 7-36 compared to the precursor from which the fragment is processed; obtained from Bachem H6795). […]
Non-obese diabetic (NOD) female mice, ages 12-14 weeks, were monitored for development of onset of diabetes (fasting blood glucose >8.0 to 15 mmol/l), and within 48 hours after onset of symptoms, four groups of mice were each treated as follows: one group was treated with vehicle only, and the other group was administered 100 μg/kg/day of GLP-1, and the remaining groups were treated with combination of GLP-1 (100 μg/kg/day) and gastrin compound (3 μg/kg/day gastrin equivalent), each treatment administered via the intraperitoneal route daily.
Therapy was administered for 14 days. Animals were monitored weekly for fasting blood glucose (FBG) levels. FBG levels were measured at about 12 hours after food had been withdrawn, and 24 hours after the last peptide or vehicle injection. […]

[3] = in vivo; cited from earlier work

CC(C)C[C@H](NC(=O)[C@H](Cc1c[nH]c2ccccc12)NC(=O)CNC(=O)[C@H](Cc1ccc(O)cc1)NC(=O)[C@H](C)NC(=O)[C@H](CCC(=O)O)NC(=O)[C@H](CCC(=O)O)NC(=O)[C@H](CCC(=O)O)NC(=O)[C@H](CCC(=O)O)NC(=O)[C@H](CCC(=O)O)NC(=O)[C@H](CC(C)C)NC(=O)[C@H](Cc1c[nH]c2ccccc12)NC(=O)[C@@H]1CCCN1C(=O)CNC(=O)[C@@H]1CCC(=O)N1)C(=O)N[C@@H](CC(=O)O)C(=O)N[C@@H](Cc1ccccc1)C(N)=O [Compound B] ([pGlu]GPWLEEEEEAYGWLDF-NH2)
clearance from the bloodstream [1]: rapidly cleared

Compound E: N-terminal Cys, gastrin residues 2-17 of SEQ ID NO: 4, no linker (GPWLEEEEEAYGWLDF; N-terminal Cys)
reduction of blood glucose levels [2]: more effecting in reducing blood glucose levels

Gastrin-17: Native peptide hormone gastrin, 17-residue form (little gastrin or small gastrin)
circulating half-life [3]: 5 to 9 min
